# According to patent US20240131098A1, “PHARMACEUTICAL COMPOSITION AND HEALTH FUNCTIONAL FOOD CONTAINING EXTRACT OF FRUITING BODY OF GANODERMA LUCIDUM AS ACTIVE INGREDIENT FOR PREVENTION OR TREATMENT OF THROMBOSIS” (Andong National University Industry-Academic Cooperation …, priority 2022, published 2024):
# What was measured:
# blood coagulation factor = assay: aPTT (activated partial thromboplastin time), blood coagulation factor inhibitory activity; format: biochemical; settings: 1.5 mg/ml; coagulation time of sample added group / DMSO added group
# Experimental: (§1) The blood coagulation inhibitory activity of Ganoderma lucidum fruiting body samples was evaluated according to the previously reported methods (Sohn et al., 2004. Kor. J. Pharmacogn 35. 52-61; Kwon et al., 2004. J Life Science, 14. 509-513; Ryu et al. 2010. J. Life Science, 20. 922-928). For this, thrombin time, prothrombin time and aPT time were measured. For plasma, commercially available control plasma (MD Pacific Technology Co., Ltd, Huayuan Industrial Area, China) was used, and thrombin time, prothrombin time, and aPT time measurements were performed in a manner described below.
# aPTT (Activated Partial Thromboplastin Time)
# 100 μl of plasma and 10 μl of sample extracts of various concentrations were added to the tube of Amelung coagulometer KC-1A (Japan) and warmed at 37° C. for 3 minutes. 50 μl of aPTT reagent (Sigma, ALEXIN™) was added thereto and incubated at 37° C. for 3 minutes. 50 μl of CaCl2 (35 mM) was added, and the time until plasma coagulation was measured. As a solvent control, DMSO was used instead of the sample, and in this case, the coagulation time was 55.1 seconds. The aPTT was expressed with the average of the results of three or more repeated experiments, and the blood coagulation factor inhibitory activity was expressed as the value obtained by dividing the aPTT upon addition of the same by the aPTT time upon addition of the solvent control. […]
# prothrombin = assay: Prothrombin time (plasma coagulation, prothrombin inhibitory activity); format: biochemical; settings: 1.5 mg/ml; coagulation time of sample added group / DMSO added group
# Experimental: as §1
# 70 μl of standard plasma (MD Pacific Co., China) and 10 μl of sample solutions of various concentrations were added to the tube of Amelung coagulometer KC-1A (Japan) and warmed at 37° C. for 3 minutes, followed by addition of 130 μl of PT reagent. After the addition of the PT reagent, the time until coagulation was measured. The time was expressed with the average value of the results of three repeated experiments. As a control, aspirin (Sigma Co., USA) was used, and as a solvent control, DMSO was used instead of the sample. In the case of DMSO, the coagulation time was 18.1 seconds. The prothrombin inhibitory activity was expressed as the value obtained by dividing the coagulation time upon addition of the sample by the coagulation time of the solvent control. […]
# thrombin = biological target: T1, thrombin (Homo sapiens, UniProt P00734); assay: Thrombin time (plasma coagulation, thrombin inhibitory activity); format: biochemical; settings: 1.5 mg/ml; coagulation time of sample added group / DMSO added group
# T1 construct: 50 μl of 0.5 U thrombin (Sigma Co., USA); purchased Sigma Co., USA
# Experimental: as §1
# At 37° C., 50 μl of 0.5 U thrombin (Sigma Co., USA), 50 μl of 20 mM CaCl2, and 10 μl of sample extracts of various concentrations were mixed in the tube of Amelung coagulometer KC-1 A (Japan), and reacted for 2 minutes, followed by addition of 100 μl of plasma. After the addition of plasma, the time until plasma coagulation was measured. As a control, aspirin (Sigma Co., USA) was used, and as a solvent control, DMSO was used instead of the sample. […]
# The thrombin inhibitory activity was expressed with the average of the results of three or more repeated experiments, and the thrombin inhibitory activity was expressed as the value obtained by dividing the coagulation time upon addition of the sample by the coagulation time upon addition of the solvent control. […]
# human erythrocytes = system: human erythrocytes
# Experimental: The hemolytic activity was evaluated according to the previous report (Son Ho-yong, 2014. Korean J. Microbiol. Biotechnol. 42: 285-292). Briefly, 100 μl of human red blood cells washed three times with PBS were placed in a 96-well microplate, 100 μl of sample solution of various concentrations was added thereto, the reaction was performed at 37° C. for 30 minutes, and the reaction solution was centrifuged at 1,500 rpm for 10 minutes, 100 μl of the supernatant was transferred to a new microtiter plate, and the degree of hemoglobin leakage due to hemolysis was measured at 414 nm. DMSO (2%) was used as a solvent control for the sample, and Triton X-100 (1 mg/ml) was used as a control for red blood cell hemolysis. Hemolytic activity was calculated using the following formula:
# (%)Hemolysis=[(Abs.S−Abs.C)/(Abs.T−Abs.C)]×100 • Abs.S: Absorbance of sample added group • Abs.C: Absorbance of DMSO added group • Abs.T: Absorbance of Triton X-100 added group
compound,measurement,setting,value
"CC(=O)Oc1ccccc1C(=O)O [Aspirin, aspirin]","Blood coagulation inhibitory activity, aPT time",blood coagulation factor,1.57 ± 0.11
same,"Blood coagulation inhibitory activity, Prothrombin time",prothrombin,1.40 ± 0.00
same,"Blood coagulation inhibitory activity, Thrombin time",thrombin,1.45 ± 0.02
Triton X-100,Human erythrocyte coagulation activity(%),human erythrocytes,0.4 ± 0.6%
